Values after ≈ are worked out from the molar mass of the structure shown.
Test system: Mycobacterium tuberculosis H37Rv
Experiment: Minimum Inhibitory Concentration (MIC) determination, MABA assay
Format: cell-based
Conditions: Microplate Alamar Blue Assay, M. tuberculosis H37Rv log phase culture in 7H-9 medium, 7 days at 37° C., lowest concentration that prevents colour change blue to pink, read-out: Mtb MIC

O=C1O[C@@H](Cn2ccnn2)CN1c1cc(F)c(N2CCC3(CC2)CS(=O)(=O)C3)c(F)c1 [Example 1, (R)-5-((1H-1,2,3-triazol-1-yl)methyl)-3-(4-(2,2-dioxido-2-thia-7-azaspiro[3.5]nonan-7-yl)-3,5-difluorophenyl)oxazolidin-2-one]
MIC: 1.25 µM (≈ 0.567 µg/mL)

O=C1O[C@@H](CNc2ccon2)CN1c1cc(F)c(N2CCC3(CC2)CS(=O)(=O)C3)c(F)c1 [Example 2, (S)-3-(4-(2,2-dioxido-2-thia-7-azaspiro[3.5]nonan-7-yl)-3,5-difluorophenyl)-5-((isoxazol-3-ylamino)methyl)oxazolidin-2-one]
MIC: 1.25 µM (≈ 0.586 µg/mL)

CC(=O)NC[C@H]1CN(c2cc(F)c(N3CCC4(CC3)CS(=O)(=O)C4)c(F)c2)C(=O)O1 [Example 3, (S)—N-((3-(4-(2,2-dioxido-2-thia-7-azaspiro[3.5]nonan-7-yl)-3,5-difluorophenyl)-2-oxooxazolidin-5-yl)methyl)acetamide]
MIC: 1.25 µM (≈ 0.554 µg/mL)

COC(=O)NC[C@H]1CN(c2cc(F)c(N3CCC4(CC3)CS(=O)(=O)C4)c(F)c2)C(=O)O1 [Example 4, (S)-methyl ((3-(4-(2,2-dioxido-2-thia-7-azaspiro[3.5]nonan-7-yl)-3,5-difluorophenyl)-2-oxooxazolidin-5-yl)methyl)carbamate]
MIC: 1.25 µM (≈ 0.574 µg/mL)

CC(=O)NC[C@H]1CN(c2ccc(N3CCC4(CC3)CS(=O)(=O)C4)c(F)c2)C(=O)O1 [Example 5, (S)—N-((3-(4-(2,2-dioxido-2-thia-7-azaspiro[3.5]nonan-7-yl)-3-fluorophenyl)-2-oxooxazolidin-5-yl)methyl)acetamide]
MIC: 1.25 µM (≈ 0.532 µg/mL)

CC(=O)NC[C@H]1CN(c2cc(F)c(N3CCC4(CC3)COC4)c(F)c2)C(=O)O1 [Example 6, (S)—N-((3-(3,5-difluoro-4-(2-oxa-7-azaspiro[3.5]nonan-7-yl)phenyl)-2-oxooxazolidin-5-yl)methyl)acetamide]
MIC: 1.25 to 2.5 µM (≈ 0.494 to 0.989 µg/mL)

CC(=O)NC[C@H]1CN(c2ccc(N3CCC4(CC3)COC4)c(F)c2)C(=O)O1 [Example 7, (S)—N-((3-(3-fluoro-4-(2-oxa-7-azaspiro[3.5]nonan-7-yl)phenyl)-2-oxooxazolidin-5-yl)methyl)acetamide]
MIC: 2.5 µM (≈ 0.944 µg/mL)

CC(=O)NC[C@H]1CN(c2cc(F)c(N3CCC(C4COC4)CC3)c(F)c2)C(=O)O1 [Example 8, (S)—N-((3-(3,5-difluoro-4-(4-(oxetan-3-yl)piperidin-1-yl)phenyl)-2-oxooxazolidin-5-yl)methyl)acetamide]
MIC: 2.5 µM (≈ 1.02 µg/mL)

CC(=O)NC[C@H]1CN(c2cc(F)c(N3CCC(C4CS(=O)(=O)C4)CC3)c(F)c2)C(=O)O1 [Example 9, (S)—N-((3-(4-(4-(1,1-dioxidothietan-3-yl)piperidin-1-yl)-3,5-difluorophenyl)-2-oxooxazolidin-5-yl)methyl)acetamide]
MIC: 1.25 µM (≈ 0.572 µg/mL)

CC(=O)NC[C@H]1CN(c2ccc(N3CCC(C4CS(=O)(=O)C4)CC3)c(F)c2)C(=O)O1 [Example 10, (S)—N-((3-(4-(4-(1,1-dioxidothietan-3-yl)piperidin-1-yl)-3-fluorophenyl)-2-oxooxazolidin-5-yl)methyl)acetamide]
MIC: 2.5 µM (≈ 1.1 µg/mL)

— patent US20210267953A1, “SUBSTITUTED OXAZOLIDINONES FOR THE TREATMENT OF MAMMALIAN INFECTIONS” (CADILA HEALTHCARE LIMITED, priority 2018, published 2021)
